Patent US6426355B1, “Heterocyclic carboxamide-containing thiourea inhibitors of herpes viruses containing phenylenediamine group” (American Home Products, priority 1998, dated 2002)
Converted amounts (≈) assume the structure as drawn.

Tests used:
VZV strain Ellen = assay: VZV Antiviral (ELISA) assay; format: cell-based; conditions: VZV strain Ellen in HFF cells; for % inhibition 10 ug/ml VZV: at 10 ug/ml
Method in brief: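 Cell-based VZV (Ellen) spread assay in HFF, 3-day compound exposure in 2% FBS medium. Viral antigen quantified by fluorescent β-galactosidase ELISA; IC50 from inhibition of signal.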

[1] = tested on: HCMV recombinant mutant virus (RV145); assay: HCMV microtiter plate assay (beta-glucuronidase reporter); format: cell-based, Human Cytomegalovirus; conditions: HCMV in human foreskin fibroblasts
Method in brief: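 Human foreskin fibroblasts were infected with RV145 in the presence of inhibitor. β-glucuronidase under a viral promoter served as the replication marker. At 96 h post-infection, lysates in pH 7.0 phosphate with Triton X-100/sarkosyl were assayed colorimetrically or fluorometrically, and IC50 was estimated from varying inhibitor amounts.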

HSV-1 = assay: HSV Antiviral (ELISA) assay; format: cell-based; conditions: HSV-1 in Vero cells
Method in brief: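 Vero cells in DMEM/2% FBS pretreated with compound 30 min before HSV-1 infection (MOI 0.006), then ~24 h at 37 °C. Viral gD detected by ELISA with β-galactosidase secondary and 4-methylumbelliferyl-galactoside (ex 365/em 450 nm); IC50 from fluorescence versus untreated infected cells.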

SMILES | IC50 (ug/ml) VZV (VZV strain Ellen) | IC50 (ug/ml) HCMV [1] | IC50 (ug/ml) HSV (HSV-1) | % inhibition 10 ug/ml VZV (VZV strain Ellen)
COc1cc(OC)c(NC(=S)Nc2ccc(NC(=O)c3nnsc3-c3ccoc3)cc2)cc1Cl [Example 280] | >10 µg/mL | >10 µg/mL | >10 µg/mL | –
COc1cc(OC)c(NC(=S)Nc2ccc(NC(=O)c3nnsc3-c3ccccc3)cc2)cc1Cl [Example 281] | >10 µg/mL | >10 µg/mL | >10 µg/mL | 31%
COc1cc(OC)c(NC(=S)Nc2ccc(NC(=O)c3snnc3-c3ccoc3)cc2)cc1Cl [Example 288] | >10 µg/mL | 4 µg/mL (≈ 7.75 µM) | >10 µg/mL | 30%
COc1cc(OC)c(NC(=S)Nc2ccc(NC(=O)c3cnns3)cc2)cc1Cl [Example 323] | >10 µg/mL | 0.03 µg/mL (≈ 0.0667 µM) | 3 µg/mL (≈ 6.67 µM) | 45%
CN(C)c1ccc(NC(=S)Nc2ccc(NC(=O)c3ccco3)cc2)cc1Cl [Example 330] | >10 µg/mL | 0.15 µg/mL (≈ 0.362 µM) | >10 µg/mL | 29%
CN(c1ccc(NC(=S)Nc2ccc(NC(=O)c3ccco3)cc2)cc1Cl)C1CCN(Cc2ccccc2)C1 (centres unmarked) [Example 331] | 5 µg/mL (≈ 8.93 µM) | 2 µg/mL (≈ 3.57 µM) | 1.8 µg/mL (≈ 3.21 µM) | 98%
CN1CCC(N(C)c2ccc(NC(=S)Nc3ccc(NC(=O)c4csnn4)cc3)cc2Cl)C1 (centres unmarked) [Example 341] | >10 µg/mL | 0.15 µg/mL (≈ 0.299 µM) | 2 µg/mL (≈ 3.98 µM) | 50%
CN1CCC(N(C)c2ccc(NC(=S)Nc3ccc(NC(=O)c4ccco4)cc3)cc2Cl)CC1 [Example 344] | 7 µg/mL (≈ 14.1 µM) | 0.25 µg/mL (≈ 0.502 µM) | 4 µg/mL (≈ 8.03 µM) | 72%
CN(C)c1ccc(NC(=S)Nc2ccc(NC(=O)c3ccccn3)cc2)cc1Cl [Example 350] | >10 µg/mL | 1 µg/mL (≈ 2.35 µM) | >10 µg/mL | 50%
CSc1ccc(NC(=S)Nc2ccc(NC(=O)c3ccccn3)cc2)cc1Cl [Example 351] | 3.5 µg/mL (≈ 8.16 µM) | 0.3 µg/mL (≈ 0.699 µM) | 3 µg/mL (≈ 6.99 µM) | 90%
COc1cc(C)c(Cl)cc1NC(=S)Nc1ccc(NC(=O)c2ccccn2)cc1 [Example 352] | >10 µg/mL | 0.6 µg/mL (≈ 1.41 µM) | 3 µg/mL (≈ 7.03 µM) | 51%
COc1cc(C)c(Cl)cc1NC(=S)Nc1ccc(NC(=O)c2ccco2)cc1 [Example 353] | 7 µg/mL (≈ 16.8 µM) | 0.04 µg/mL (≈ 0.0962 µM) | 0.6 µg/mL (≈ 1.44 µM) | 86%
CN1CCC(N(C)c2ccc(NC(=S)Nc3ccc(NC(=O)c4ccccn4)cc3)cc2Cl)C1 (centres unmarked) [Example 354] | 7 µg/mL (≈ 14.1 µM) | 2 µg/mL (≈ 4.04 µM) | 0.8 µg/mL (≈ 1.62 µM) | 75%
CN(C)CC(=O)Nc1ccc(NC(=S)Nc2ccc(NC(=O)c3ccco3)cc2)cc1Cl [Example 361] | >10 µg/mL | 0.25 µg/mL (≈ 0.53 µM) | 8 µg/mL (≈ 17 µM) | 26%
O=C(CN1CCCCC1)Nc1ccc(NC(=S)Nc2ccc(NC(=O)c3ccco3)cc2)cc1Cl [Example 365] | 5 µg/mL (≈ 9.76 µM) | 0.035 µg/mL (≈ 0.0684 µM) | 10 µg/mL (≈ 19.5 µM) | 75%
O=C(CN1CCOCC1)Nc1ccc(NC(=S)Nc2ccc(NC(=O)c3ccco3)cc2)cc1Cl [Example 368] | >10 µg/mL | 0.35 µg/mL (≈ 0.681 µM) | >10 µg/mL | 20%

SMILES | IC50 (ug/ml) VZV (VZV strain Ellen) | IC50 (ug/ml) HCMV [1] | IC50 (ug/ml) HSV (HSV-1) | % inhibition 10 ug/ml VZV (VZV strain Ellen)
CS(=O)(=O)Nc1ccc(NC(=S)Nc2ccc(NC(=O)c3ccco3)cc2)cc1Cl [Example 371] | >10 µg/mL | >10 µg/mL | >10 µg/mL | 45%
CN1CCC(N(C)c2ccc(NC(=S)Nc3ccc(NC(=O)c4ccccn4)cc3)cc2Cl)CC1 [Example 376] | 7 µg/mL (≈ 13.8 µM) | 0.8 µg/mL (≈ 1.57 µM) | 3 µg/mL (≈ 5.89 µM) | 83%
O=C(Nc1ccc(NC(=S)Nc2ccc(Cl)c(C(F)(F)F)c2)cc1)c1ccco1 [Example 378] | >10 µg/mL | 0.033 µg/mL (≈ 0.075 µM) | >10 µg/mL | 31%
O=C(Nc1ccc(NC(=S)Nc2ccc(Cl)c(C(F)(F)F)c2)cc1)c1ccccn1 [Example 379] | >10 µg/mL | >10 µg/mL | >10 µg/mL | 27%
O=C(CN1CCCCC1)Nc1ccc(NC(=S)Nc2ccc(NC(=O)c3csnn3)cc2)cc1Cl [Example 391] | 6 µg/mL (≈ 11.3 µM) | 0.019 µg/mL (≈ 0.0358 µM) | 8 µg/mL (≈ 15.1 µM) | 97%
CN(C)CCSCC(=O)Nc1ccc(NC(=S)Nc2ccc(NC(=O)c3ccco3)cc2)cc1Cl [Example 396] | >10 µg/mL | 0.7 µg/mL (≈ 1.32 µM) | >10 µg/mL | 26%
CCOC(=O)Nc1ccc(NC(=S)Nc2ccc(NC(=O)c3ccco3)cc2)cc1Cl [Example 398] | >10 µg/mL | 0.13 µg/mL (≈ 0.283 µM) | >10 µg/mL | 5%
O=C(Nc1ccc(NC(=S)Nc2ccc(NC(=O)c3ccco3)cc2)cc1Cl)c1ccccc1 [Example 403] | >15 µg/mL | 0.09 µg/mL (≈ 0.183 µM) | 6 µg/mL (≈ 12.2 µM) | 108%
O=C(CN1CCSCC1)Nc1ccc(NC(=S)Nc2ccc(NC(=O)c3ccco3)cc2)cc1Cl [Example 406] | >10 µg/mL | 0.12 µg/mL (≈ 0.226 µM) | >10 µg/mL | 28%
CC(=O)Nc1ccc(NC(=S)Nc2ccc(NC(=O)c3ccco3)cc2)cc1Cl [Example 409] | >10 µg/mL | 2 µg/mL (≈ 4.66 µM) | >10 µg/mL | 5%
CCCN(CCC)CC(=O)Nc1ccc(NC(=S)Nc2ccc(NC(=O)c3ccco3)cc2)cc1Cl [Example 411] | 2 µg/mL (≈ 3.79 µM) | 0.024 µg/mL (≈ 0.0454 µM) | 8 µg/mL (≈ 15.1 µM) | 99%
CCN(CC)CC(=O)Nc1ccc(NC(=S)Nc2ccc(NC(=O)c3ccco3)cc2)cc1Cl [Example 413] | 5 µg/mL (≈ 10 µM) | 0.081 µg/mL (≈ 0.162 µM) | 5 µg/mL (≈ 10 µM) | 103%
O=C(CN1CCCC1)Nc1ccc(NC(=S)Nc2ccc(NC(=O)c3ccco3)cc2)cc1Cl [Example 416] | >15 µg/mL | 0.25 µg/mL (≈ 0.502 µM) | >10 µg/mL | 87%
Nc1ccc(NC(=S)Nc2ccc(NC(=O)c3ccco3)cc2)cc1Cl [Example 421] | >10 µg/mL | 0.75 µg/mL (≈ 1.94 µM) | 8 µg/mL (≈ 20.7 µM) | –
O=C(CN1CCCCCC1)Nc1ccc(NC(=S)Nc2ccc(NC(=O)c3ccco3)cc2)cc1Cl [Example 422] | >10 µg/mL | 0.058 µg/mL (≈ 0.11 µM) | 5 µg/mL (≈ 9.5 µM) | 69%
